Assays:
[1] = target: T1, human Factor Xa (Homo sapiens, UniProt P00742); design: method as in Steinert et al., 2022; settings: 500 nM; ref Steinert et al., 2022; cited from earlier work
T1 construct: human Factor Xa, HFXA, > 95% purity; Molecular Innovations; purchased Molecular Innovations HFXA

[2] = system: human α-thrombin; design: method as in Steinert et al., 2022; settings: 500 nM; ref Steinert et al., 2022; cited from earlier work
[3] = Hepatic phase II glucuronidation, human microsomes; type: in vitro ADME; settings: human microsomes, 50 µM, 4 h
Procedure: (§1) Liver microsomes and cytosol were obtained for two organisms, horse and human. Fresh horse liver was purchased locally cut to pieces of ca. 50 g each and frozen in liquid nitrogen. Until further usage, the liver was stored at -80 °C. The preparation of microsomes and cytosol was carried out according to Balk et al. ([Balk et al., 1984]), and the protein content was determined by Bradford assay with bovine serum albumin as a reference ([Bradford, 1976]). Human liver microsomes and cytosol (150 Donors Ultrapool™) were provided by Corning, Inc. (Corning, New York, NY, USA). Besides assay-specific positive controls, all assays included stability controls, moreover, matrix influences were considered. For oxidation, additional non-oxidation controls were included. Each experiment was performed in duplicate. All stated concentrations are final concentration values. The test compounds (acetoxystachybotrylactam acetate-tryptophan 2a, 2b and acetoxystachybotrylactam acetate-tryptamine 3a, 3b ) were extended by the most biologically active derivative previously characterized by our group (acetoxystachybotrylactam acetate-agmatine 4 ) ([Steinert et al., 2022]).
(§2) For phase II metabolism, potential sulfation and glucuronidation were investigated. For sulfation, the reaction mixture was pipetted as follows: first, ultrapure water was added and mixed with a 1 mM DTT solution (contains DTT, 100 mM phosphate buffer, 100 µM ascorbic acid, pH 7.4). Then, PAPS (100 µM) and the substance of interest (50 µM) were added, which was concluded by the addition of horse/human cytosol (10 mg protein/mL). For glucuronidation, first, ultrapure H2O, phosphate buffer (50 mM) and MgCl2 (5 mM) were added to the reaction vessel, followed by addition of the investigated substance (50 µM), UDPGA (5 µM), and horse/human microsomes (1 mg protein/mL), respectively. For both assays, the final volume was 100 µL which was subsequently incubated for 4 h at 37 °C in darkness. Quenching and protein precipitation was achieved by adding 200 µL of cold MeCN (-20 °C). After centrifugation (4 °C, 10 min, 15,000 rpm), 150 µL of supernatant was diluted with 850 µL H2O, which was subsequently analyzed by HPLC-qToF-HRMS. For both experiments, 50 µM 7-hydroxycumarin served as positive control.
Chromatographic separation and mass spectrometric detection were identical to the parameters already described for the fragmentation experiments for phase I and phase II glucuronidation metabolism. For sulfation, the HPLC-qToF-HRMS was operated in negative ionization mode at -4.5 kV and otherwise identical source parameters as previously described. […]

[4] = system: plasma coagulation; design: method as in Steinert et al., 2022; settings: ref Steinert et al., 2022; cited from earlier work
[5] = system: Human liver carcinoma cells (HepG2, HB-8065); design: method as in Steinert et al., 2022; settings: HepG2; ref Steinert et al., 2022; cited from earlier work
[6] = Hepatic phase II sulfation, horse cytosol; type: in vitro ADME; settings: 50 µM, 4 h
Procedure: as §1
as §2, with “Quenching and protein precipitation was achieved by adding 200 µL of cold MeCN (-20 °C).” left out, “For both experiments, 50 µM 7-hydroxycumarin served as positive control.” left out

[7] = Hepatic phase II sulfation, human cytosol; type: in vitro ADME; settings: 50 µM, 4 h
Procedure: as §1
as §2, with “Quenching and protein precipitation was achieved by adding 200 µL of cold MeCN (-20 °C).” left out, “For both experiments, 50 µM 7-hydroxycumarin served as positive control.” left out

[8] = Hepatic phase I metabolism (oxidation), human microsomes; type: in vitro ADME; settings: 10 µM, 90 min
Procedure: as §1
(§3) The phase I metabolism was investigated utilizing a NADPH- regenerating system. […] After centrifugation (4 °C, 10 min, 15,000 rpm), 150 µL of supernatant was diluted with 850 µL H2O, which was subsequently analyzed by HPLC-qToF-HRMS. […]

[9] = system: plasma coagulation; design: method as in Steinert et al., 2022; settings: ref Steinert et al., 2022; cited from earlier work; remark: listed apart in the source
[10] = Hepatic phase I metabolism (oxidation), horse microsomes; type: in vitro ADME; settings: 10 µM, 90 min
Procedure: as §1, §3

[11] = system: lung adenocarcinoma cells (A549, CCL-185); design: method as in Steinert et al., 2022; settings: ref Steinert et al., 2022; cited from earlier work

T1 sequence (P00742 235-488 limits assumed): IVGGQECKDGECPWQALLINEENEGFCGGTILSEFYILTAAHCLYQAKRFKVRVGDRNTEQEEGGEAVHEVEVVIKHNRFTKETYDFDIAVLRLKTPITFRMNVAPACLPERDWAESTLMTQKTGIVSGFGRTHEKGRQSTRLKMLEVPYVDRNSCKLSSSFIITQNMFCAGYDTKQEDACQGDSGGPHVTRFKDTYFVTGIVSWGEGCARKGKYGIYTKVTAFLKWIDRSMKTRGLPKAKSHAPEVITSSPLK
T1 sequence (P00742 41-179 partner limits assumed): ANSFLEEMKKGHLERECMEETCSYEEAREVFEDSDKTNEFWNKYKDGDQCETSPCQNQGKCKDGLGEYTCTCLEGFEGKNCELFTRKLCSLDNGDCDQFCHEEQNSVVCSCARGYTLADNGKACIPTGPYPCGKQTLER

O=C(NC[C@H]1CN(c2ccc(N3CCOCC3=O)cc2)C(=O)O1)c1ccc(Cl)s1 [rivaroxaban]
inhibition of FXa (positive control) [1]: 99.8 ± 0.3%

[H]/N=C(/N)c1ccc(NCc2nc3cc(C(=O)N(CCC(=O)O)c4ccccn4)ccc3n2C)cc1 [Dabigatran, dabigatran]
inhibition of thrombin (positive control) [2]: 98.3 ± 0.1%

acetoxystachybotrylactam acetate-agmatine [Compound 4]
glucuronidation: conversion and formation of glucuronides, in words [3]: best conversion
plasma coagulation, activated partial thromboplastin time [4]: prolonged plasma coagulation
cytotoxicity, in words [5]: no cytotoxicity
metabolism under sulfation conditions, in words [6]: did undergo metabolism
metabolism under sulfation conditions, in words [7]: did undergo metabolism
phase I conversion, in words [8]: fastest among the reaction products to be metabolized
plasma coagulation, prothrombin time [9]: prolonged plasma coagulation
phase I conversion, in words [10]: fastest among the reaction products to be metabolized
cytotoxicity, in words [11]: no cytotoxicity

Source: article PMC11621054, “Biological evaluation of semi-synthetic isoindolinone isomers produced by Stachybotrys chartarum” (Frontiers in Fungal Biology, 2024)
